Reference: ChEMBL document CHEMBL1137510, “Discovery of potent T-type calcium channel blocker” (Bioorg Med Chem Lett, 2007)

Tests used:
Type in all cases: cell-based
HEK293 [1] = experiment: Selectivity for alpha-1B N-type calcium channel over alpha1G T-type calcium channel expressed in HEK293 cells; settings: Homo sapiens
HEK293 [2] = experiment: Selectivity for Alpha-1B N-type calcium channel over alpha-1G T-type calcium channel expressed in HEK293 cells at 10 uM; settings: Homo sapiens
[3] = target: Voltage-dependent N-type calcium channel subunit alpha-1B (Homo sapiens) (UniProt Q00975); experiment: Inhibition of N-type calcium channel […] alpha-1B subunit expressed in HEK293 cells assessed as calcium current at 10 uM by patch-clamp assay
Chain of Voltage-dependent N-type calcium channel subunit alpha-1B (Homo sapiens) (Q00975 whole entry, looked up): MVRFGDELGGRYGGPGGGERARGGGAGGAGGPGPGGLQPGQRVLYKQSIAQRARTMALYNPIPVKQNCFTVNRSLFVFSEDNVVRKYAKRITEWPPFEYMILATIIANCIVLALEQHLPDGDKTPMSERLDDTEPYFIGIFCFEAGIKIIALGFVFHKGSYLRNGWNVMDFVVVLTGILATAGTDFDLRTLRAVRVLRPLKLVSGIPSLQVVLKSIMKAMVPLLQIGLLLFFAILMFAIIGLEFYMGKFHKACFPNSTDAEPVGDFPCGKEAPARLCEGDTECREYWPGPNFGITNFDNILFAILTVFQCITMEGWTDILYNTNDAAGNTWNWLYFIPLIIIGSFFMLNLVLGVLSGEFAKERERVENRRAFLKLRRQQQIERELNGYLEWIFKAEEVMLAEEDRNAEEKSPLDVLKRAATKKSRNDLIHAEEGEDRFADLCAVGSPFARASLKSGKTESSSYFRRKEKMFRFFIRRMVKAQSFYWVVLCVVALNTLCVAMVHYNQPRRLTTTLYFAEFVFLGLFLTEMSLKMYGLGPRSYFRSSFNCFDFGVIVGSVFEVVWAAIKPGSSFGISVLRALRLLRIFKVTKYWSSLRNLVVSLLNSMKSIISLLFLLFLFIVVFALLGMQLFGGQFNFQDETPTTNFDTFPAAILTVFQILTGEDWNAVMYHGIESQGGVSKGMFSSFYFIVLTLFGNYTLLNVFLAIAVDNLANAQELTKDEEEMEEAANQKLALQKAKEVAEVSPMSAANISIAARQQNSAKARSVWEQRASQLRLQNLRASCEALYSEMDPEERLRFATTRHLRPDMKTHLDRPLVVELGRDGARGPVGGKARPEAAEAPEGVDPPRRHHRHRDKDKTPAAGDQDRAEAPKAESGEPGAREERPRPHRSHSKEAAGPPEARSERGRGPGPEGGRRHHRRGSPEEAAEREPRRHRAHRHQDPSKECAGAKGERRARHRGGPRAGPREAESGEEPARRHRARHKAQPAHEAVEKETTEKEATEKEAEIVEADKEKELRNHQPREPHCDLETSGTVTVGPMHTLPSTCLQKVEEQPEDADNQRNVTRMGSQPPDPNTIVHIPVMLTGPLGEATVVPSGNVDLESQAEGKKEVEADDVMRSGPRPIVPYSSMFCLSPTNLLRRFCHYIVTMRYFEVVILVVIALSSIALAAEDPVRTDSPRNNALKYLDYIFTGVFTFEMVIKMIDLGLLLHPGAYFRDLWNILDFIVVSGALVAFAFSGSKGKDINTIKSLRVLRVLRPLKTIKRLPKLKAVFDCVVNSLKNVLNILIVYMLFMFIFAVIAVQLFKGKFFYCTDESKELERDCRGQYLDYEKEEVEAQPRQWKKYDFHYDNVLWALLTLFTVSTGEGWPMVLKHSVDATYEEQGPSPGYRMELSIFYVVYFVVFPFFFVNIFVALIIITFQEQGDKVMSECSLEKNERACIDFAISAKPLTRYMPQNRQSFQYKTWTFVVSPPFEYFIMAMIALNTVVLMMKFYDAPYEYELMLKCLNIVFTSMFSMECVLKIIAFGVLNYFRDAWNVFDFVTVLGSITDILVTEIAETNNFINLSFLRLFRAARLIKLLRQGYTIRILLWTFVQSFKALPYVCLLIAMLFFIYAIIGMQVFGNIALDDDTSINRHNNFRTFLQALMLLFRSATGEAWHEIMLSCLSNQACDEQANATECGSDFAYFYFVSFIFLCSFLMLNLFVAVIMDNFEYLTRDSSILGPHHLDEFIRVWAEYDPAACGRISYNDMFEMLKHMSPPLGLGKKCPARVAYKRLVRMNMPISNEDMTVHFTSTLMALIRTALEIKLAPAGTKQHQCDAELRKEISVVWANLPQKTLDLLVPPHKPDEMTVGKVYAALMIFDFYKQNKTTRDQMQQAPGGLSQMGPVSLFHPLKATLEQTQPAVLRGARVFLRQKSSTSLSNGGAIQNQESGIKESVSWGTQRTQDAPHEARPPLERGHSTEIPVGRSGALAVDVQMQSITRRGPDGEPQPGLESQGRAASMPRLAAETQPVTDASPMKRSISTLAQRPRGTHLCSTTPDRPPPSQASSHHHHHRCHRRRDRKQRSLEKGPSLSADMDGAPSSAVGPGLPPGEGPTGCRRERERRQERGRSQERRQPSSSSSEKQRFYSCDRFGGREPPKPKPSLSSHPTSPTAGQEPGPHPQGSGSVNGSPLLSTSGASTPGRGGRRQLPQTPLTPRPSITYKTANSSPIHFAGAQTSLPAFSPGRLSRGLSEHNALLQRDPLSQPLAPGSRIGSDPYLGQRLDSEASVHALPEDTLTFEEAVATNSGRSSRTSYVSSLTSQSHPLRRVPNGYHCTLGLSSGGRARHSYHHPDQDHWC

[4] = target: Voltage-dependent T-type calcium channel subunit alpha-1G (Homo sapiens) (UniProt O43497); experiment: Inhibition of T-type calcium channel Cav3.1 alpha-1G subunit expressed in HEK293 cells assessed as calcium current at 10 uM by patch-clamp assay
Chain of Voltage-dependent T-type calcium channel subunit alpha-1G (Homo sapiens) (O43497 whole entry): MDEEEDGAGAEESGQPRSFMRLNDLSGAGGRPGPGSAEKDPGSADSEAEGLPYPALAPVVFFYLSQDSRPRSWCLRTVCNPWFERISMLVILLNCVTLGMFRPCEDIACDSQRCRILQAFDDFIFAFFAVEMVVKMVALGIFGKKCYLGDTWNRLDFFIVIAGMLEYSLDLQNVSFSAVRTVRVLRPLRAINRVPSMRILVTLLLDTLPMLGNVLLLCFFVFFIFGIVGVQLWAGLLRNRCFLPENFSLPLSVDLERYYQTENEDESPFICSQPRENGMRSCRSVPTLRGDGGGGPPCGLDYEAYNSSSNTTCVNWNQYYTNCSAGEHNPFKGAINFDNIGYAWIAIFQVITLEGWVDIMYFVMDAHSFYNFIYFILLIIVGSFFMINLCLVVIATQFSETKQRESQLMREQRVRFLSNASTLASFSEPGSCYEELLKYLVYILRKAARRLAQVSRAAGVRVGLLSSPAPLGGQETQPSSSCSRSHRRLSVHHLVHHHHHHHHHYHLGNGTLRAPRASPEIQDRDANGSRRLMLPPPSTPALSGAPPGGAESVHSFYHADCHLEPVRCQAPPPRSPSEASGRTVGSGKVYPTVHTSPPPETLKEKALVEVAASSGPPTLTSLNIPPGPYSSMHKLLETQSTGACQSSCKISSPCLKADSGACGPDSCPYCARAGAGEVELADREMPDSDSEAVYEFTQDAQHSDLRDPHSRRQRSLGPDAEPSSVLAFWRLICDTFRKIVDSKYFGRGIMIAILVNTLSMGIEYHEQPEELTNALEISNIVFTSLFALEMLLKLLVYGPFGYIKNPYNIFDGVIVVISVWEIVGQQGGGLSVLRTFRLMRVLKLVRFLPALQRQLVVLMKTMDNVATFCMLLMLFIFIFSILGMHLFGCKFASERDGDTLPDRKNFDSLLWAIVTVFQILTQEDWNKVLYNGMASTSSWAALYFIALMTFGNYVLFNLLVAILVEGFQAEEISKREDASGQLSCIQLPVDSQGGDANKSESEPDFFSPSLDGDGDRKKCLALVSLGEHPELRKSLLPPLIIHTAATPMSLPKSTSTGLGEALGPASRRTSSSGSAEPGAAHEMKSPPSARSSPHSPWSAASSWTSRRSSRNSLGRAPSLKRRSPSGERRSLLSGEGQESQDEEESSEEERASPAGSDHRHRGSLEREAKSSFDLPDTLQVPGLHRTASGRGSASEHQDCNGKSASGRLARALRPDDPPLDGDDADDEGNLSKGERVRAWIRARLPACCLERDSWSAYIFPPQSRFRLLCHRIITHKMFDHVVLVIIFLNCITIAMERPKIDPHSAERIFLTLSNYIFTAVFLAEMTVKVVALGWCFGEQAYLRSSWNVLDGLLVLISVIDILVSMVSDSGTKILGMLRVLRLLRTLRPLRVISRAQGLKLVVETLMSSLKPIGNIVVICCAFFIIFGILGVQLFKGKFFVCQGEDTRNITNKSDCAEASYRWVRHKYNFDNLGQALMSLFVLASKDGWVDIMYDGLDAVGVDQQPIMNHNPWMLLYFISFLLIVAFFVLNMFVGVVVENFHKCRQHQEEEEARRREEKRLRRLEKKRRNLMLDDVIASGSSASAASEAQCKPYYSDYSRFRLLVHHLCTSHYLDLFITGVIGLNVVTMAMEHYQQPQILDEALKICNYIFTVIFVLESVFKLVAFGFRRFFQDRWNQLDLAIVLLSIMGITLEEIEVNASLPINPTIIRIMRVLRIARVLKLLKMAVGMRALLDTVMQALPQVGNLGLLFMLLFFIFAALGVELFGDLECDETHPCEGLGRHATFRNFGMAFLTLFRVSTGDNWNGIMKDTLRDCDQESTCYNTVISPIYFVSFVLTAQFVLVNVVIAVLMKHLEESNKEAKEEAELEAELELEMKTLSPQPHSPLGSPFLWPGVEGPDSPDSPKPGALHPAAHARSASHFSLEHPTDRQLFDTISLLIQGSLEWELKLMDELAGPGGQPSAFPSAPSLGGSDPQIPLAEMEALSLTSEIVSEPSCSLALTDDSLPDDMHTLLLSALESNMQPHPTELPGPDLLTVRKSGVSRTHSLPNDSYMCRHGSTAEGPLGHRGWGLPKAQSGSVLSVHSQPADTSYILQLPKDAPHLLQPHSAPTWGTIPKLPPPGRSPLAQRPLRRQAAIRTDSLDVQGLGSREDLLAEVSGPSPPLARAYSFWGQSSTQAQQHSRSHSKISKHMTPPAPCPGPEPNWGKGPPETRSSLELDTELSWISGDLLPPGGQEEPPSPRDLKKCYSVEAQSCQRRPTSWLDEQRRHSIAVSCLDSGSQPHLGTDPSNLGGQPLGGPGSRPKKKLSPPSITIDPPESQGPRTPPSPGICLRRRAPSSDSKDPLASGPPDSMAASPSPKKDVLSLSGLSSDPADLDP

[5] = target: Voltage-dependent T-type calcium channel subunit alpha-1G (Homo sapiens) (UniProt O43497); experiment: Inhibition of T-type calcium channel Cav3.1 alpha-1G subunit expressed in HEK293 cells assessed as calcium current at 10 uM by high throughput screening

Structure (SMILES)	inhibition [3] [%]	inhibition [4] [%]	inhibition [5] [%]	Ratio IC50 (HEK293 [1])	Selectivity ratio (HEK293 [2])
CN(C)CCCCCN(C)C1=Nc2ccccc2C(CC(=O)NCc2ccccc2)N1c1ccc(-c2ccccc2)cc1 (stereo not drawn)	70.6	98	42.9	120	1.4
COC(=O)CC1c2ccccc2N=C(NCCCCCN)N1c1ccc(-c2ccccc2)cc1 (stereo not drawn)	–	–	–	–	> 100
O=C(CC1c2ccccc2N=C(N2CCCCC2)N1c1ccccc1)NCc1ccccc1 (stereo not drawn)	28.1	–	–	–	3.2

Second part, led by results:

inhibition [3] [%]	inhibition [4] [%]	inhibition [5] [%]	Structure (SMILES)	Ratio IC50 (HEK293 [1])	Selectivity ratio (HEK293 [2])
24.4	90.1	57.9	COC(=O)CC1c2ccccc2N=C(N(C)CCCCCN(C)C)N1c1ccc(-c2ccccc2)cc1 (stereo not drawn)	–	3.7
–	–	77.6	COCC(=O)O[C@]1(CCN(C)CCCc2nc3ccccc3[nH]2)CCc2cc(F)ccc2[C@@H]1C(C)C	–	–
